Test results: patent US8030499B2, “1,3-dihydro-2H-indole-2-one compound and pyrrolidine-2-one compound fused with aromatic heterocycle” (Taisho Pharmaceutical Co., Ltd., priority 2005, dated 2011)
Counter-ions that a name gives are not always drawn.

Target: T1, human V1b receptor (Homo sapiens, UniProt P47901)
T1 construct: expressed in transfected cells; host or cells: CHO cells
T1 sequence (P47901 1-424): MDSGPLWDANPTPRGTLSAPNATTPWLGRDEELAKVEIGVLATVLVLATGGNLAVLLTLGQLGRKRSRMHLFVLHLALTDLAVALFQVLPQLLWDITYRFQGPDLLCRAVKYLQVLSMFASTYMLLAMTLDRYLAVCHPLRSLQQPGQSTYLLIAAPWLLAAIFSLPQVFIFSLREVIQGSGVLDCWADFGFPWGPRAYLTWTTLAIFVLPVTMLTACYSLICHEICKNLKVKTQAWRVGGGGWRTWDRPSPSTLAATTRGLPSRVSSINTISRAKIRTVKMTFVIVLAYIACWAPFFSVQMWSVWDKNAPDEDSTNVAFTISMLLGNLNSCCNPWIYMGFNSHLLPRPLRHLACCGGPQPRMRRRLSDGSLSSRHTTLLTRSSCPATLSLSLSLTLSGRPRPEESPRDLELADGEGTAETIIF
Experiment: V1b receptor binding assay ([3H](Arg8)-vasopressin, crude membranes of CHO cells)
Conditions: 0.1 μmol/L test drug, V1b receptor binding assay; read-out: Rate of inhibition (V1b: % of inhibition)
Procedure: A summary of the methods is given below.
Each obtained homogenate was centrifuged for 20 minutes at 50,000×g and 4° C., the sediment was resuspended in a 50 mmol/L Tris hydrochloric acid buffer solution (pH7.4, containing 10 mmol/L magnesium chloride and 0.1% bovine serum albumin), which served as a crude membrane preparation. This crude membrane preparation was added with [^3H] (Arg^8) vasopressin (final concentration: 0.1 nmol/L to 0.4 nmol/L), and each test drug (final concentration: 0.1 nmol/L to lμmol/L or 0.01 nmol/L to 0.1 μmol/L) to 22° C. for 90 minutes. After the end of the reaction, the reaction solution was filtrated using a GF/C glass fiber filter, which had been presoaked in 0.3% polyethyleneimine for two hours. After the GF/C glass fiber filter was dried sufficiently, scintillator was added, and the radioactivity on the filter was measured using a liquid scintillation counter. Binding of [^3H] (Arg^8)-vasopressin in the presence of (Arg^8)-vasopressin, in the amounts of 0.1 μmol/L in the V1b receptor binding assay and 5 μmol/L in the V1a and V2 receptor binding assay, were taken as non-specific binding, and the value obtained by subtracting non-specific binding from the total binding in the absence (Arg^8)-vasopressin served as specific binding.
In addition, regarding the V1b receptor binding assay, the value obtained by, subtracting the amount of binding in the presence of 0.1 μmol/L test drug from the total amount of binding, divided by the amount of specific binding, served as the rate of inhibition (% of inhibition) of the test drug at the concentration tested.

`COc1ccc(S(=O)(=O)N2C(=O)C(c3cc(C)ccc3OC)(N3C[C@H](OCC#N)C[C@H]3C(=O)N(C)C)c3cc(Cl)ccc32)c(OC(F)(F)F)c1` (single isomer, unassigned) [Example 146] gave an inhibition at 0.1 µM of 94%.

In the case of `COc1ccc(S(=O)(=O)N2C(=O)C(NCC(=O)N3CCN(c4ccncc4)CC3)(c3ccccc3OC)c3cc(Cl)ccc32)c(OC(F)(F)F)c1` (stereo not drawn) [Example 58, 5-chloro-3-(2-methoxyphenyl)-1-{[4-methoxy-2-(trifluoromethoxy)phenyl]sulfonyl}-3-{[2-oxo-2-(4-pyridin-4-ylpiperazin-1-yl)ethyl]amino}-1,3-dihydro-2H-indol-2-one], the inhibition at 0.1 µM is reported as 77%.

Compound `COc1ccc(S(=O)(=O)N2C(=O)C(c3cccc4c3OCO4)(N3C[C@H](O)C[C@H]3C(=O)N(C)C)c3cc(Br)ccc32)c(OC(F)(F)F)c1` (single isomer, unassigned) [Example 92] has an inhibition at 0.1 µM of 102%.

In the case of `COc1ccc(S(=O)(=O)N2C(=O)C(c3cccc(OC)c3OC)(N3C[C@H](O)C[C@H]3C(=O)N(C)C)c3cc(Cl)ccc32)c(OC(F)(F)F)c1` (single isomer, unassigned) [Example 240], the inhibition at 0.1 µM is reported as 85%.

`COc1ccc(S(=O)(=O)N2C(=O)C(N[C@@H](Cc3ccncc3)C(=O)N(C)C)(c3ccccc3OC)c3cc(Cl)ccc32)c(OC(F)(F)F)c1` (single isomer, unassigned) [Example 83] was tested, and the inhibition at 0.1 µM was 72%.

In the case of `COc1ccc(S(=O)(=O)N2C(=O)C(c3cc(C)ccc3OC)(N3C[C@H](O)C[C@H]3C(=O)N(CCO)CCO)c3cc(Cl)ccc32)c(OC(F)(F)F)c1` (stereo partly drawn) [Example 161, (4R)-1-(5-chloro-3-(2-methoxy-5-methylphenyl)-1-{[4-methoxy-2-(trifluoromethoxy)phenyl]sulfonyl}-2-oxo-2,3-dihydro-1H-indol-3-yl)-4-hydroxy-N,N-bis(2-hydroxyethyl)-L-prolinamide], the inhibition at 0.1 µM is reported as 78%.

Compound `COc1ccc(C)cc1C1(N2C[C@H](O)C[C@H]2C(=O)N(C)C)C(=O)N(S(=O)(=O)c2ccc(OC)c(OC)c2OC)c2ccc(Cl)cc21` (single isomer, unassigned) [Example 176] has an inhibition at 0.1 µM of 97%.

`COc1ccc(S(=O)(=O)N2C(=O)C(c3cc(CN4CCN(C(=O)OC(C)(C)C)CC4)ccc3OC)(N3C[C@H](O)C[C@H]3C(=O)N(C)C)c3cc(Cl)ccc32)c(OC(F)(F)F)c1` (single isomer, unassigned) [Example 201] gave an inhibition at 0.1 µM of 53%.

`COc1ccc(S(=O)(=O)N2C(=O)C(c3ccccc3OC)(N3c4ccccc4C[C@H]3C(=O)N(C)C)c3cc(Cl)ccc32)c(OC(F)(F)F)c1` (stereo partly drawn) [Example 40, (2S)-5′-chloro-3′-(2-methoxyphenyl)-1′-{[4-methoxy-2-(trifluoromethoxy)phenyl]sulfonyl}-N,N-dimethyl-2′-oxo-2,2′,3,3′-tetrahydro-1′H-1,3′-biindole-2-carboxamide] showed an inhibition at 0.1 µM of 66%.

Compound `COc1ccc(S(=O)(=O)N2C(=O)C(c3cc(C)ccc3OC)(N3C[C@H](OCC(O)CO)C[C@H]3C(=O)N(C)C)c3cc(Cl)ccc32)c(OC(F)(F)F)c1` (stereo partly drawn) [Example 150, (4R)-1-(5-chloro-3-(2-methoxy-5-methylphenyl)-1-{[4-methoxy-2-(trifluoromethoxy)phenyl]sulfonyl}-2-oxo-2,3-dihydro-1H-indol-3-yl)-4-(2,3-dihydroxypropoxy)-N,N-dimethyl-L-prolinamide] has an inhibition at 0.1 µM of 89%.

`COC(=O)[C@H](C)OC1(c2ccccc2OC)C(=O)N(S(=O)(=O)c2ccc(OC)cc2OC(F)(F)F)c2ccc(Cl)cc21` (stereo partly drawn) [Example 80, Methyl (2S)-2-[(5-chloro-3-(2-methoxyphenyl)-1-{[4-methoxy-2-(trifluoromethoxy)phenyl]sulfonyl}-2-oxo-2,3-dihydro-1H-indol-3-yl)oxy]propanoate] was tested, and the inhibition at 0.1 µM was 69%.

In the case of `COc1ccc(S(=O)(=O)N2C(=O)C(CC(=O)N3CCN(c4ccncc4)CC3)(c3ccccc3OC)c3cc(Cl)ccc32)c(OC(F)(F)F)c1` (stereo not drawn) [Example 43, 5-chloro-3-(2-methoxyphenyl)-1-{[4-methoxy-2-(trifluoromethoxy)phenyl]sulfonyl}-3-[2-oxo-2-(4-pyridin-4-ylpiperazin-1-yl)ethyl]-1,3-dihydro-2H-indol-2-one hydrochloride 1.5 hydrate], the inhibition at 0.1 µM is reported as 92%.

In the case of `COc1ccc(S(=O)(=O)N2C(=O)C(c3cc(C)ccc3OC)(N3CCN(c4ccncc4)CC3C(=O)N(C)C)c3cc(Cl)ccc32)c(OC(F)(F)F)c1` (stereo not drawn) [Example 112, 1-(5-chloro-3-(2-methoxy-5-methylphenyl)-1-{[4-methoxy-2-(trifluoromethoxy)phenyl]sulfonyl}-2-oxo-2,3-dihydro-1H-indol-3-yl)-N,N-dimethyl-4-pyridin-4-yl piperazine-2-carboxamide], the inhibition at 0.1 µM is reported as 55%.

In the case of `COc1ccc(S(=O)(=O)N2C(=O)C(c3cc(N(C)C)ccc3OC)(N3C[C@H](O)C[C@H]3C(=O)N(C)C)c3cc(Cl)ccc32)c(OC(F)(F)F)c1` (single isomer, unassigned) [Example 190], the inhibition at 0.1 µM is reported as 93%.

Compound `CCN(C)CCCO[C@@H]1C[C@@H](C(=O)N(C)C)N(C2(c3cc(C)ccc3OC)C(=O)N(S(=O)(=O)c3ccc(OC)cc3OC(F)(F)F)c3ccc(Cl)cc32)C1` (stereo partly drawn) [Example 152, (4R)-1-(5-chloro-3-(2-methoxy-5-methylphenyl)-1-{[4-methoxy-2-(trifluoromethoxy)phenyl]sulfonyl}-2-oxo-2,3-dihydro-1H-indol-3-yl)-4-{3-[ethyl(methyl)amino]propoxy}-N,N-dimethyl-L-prolinamide] has an inhibition at 0.1 µM of 107%.

`COc1ccc(S(=O)(=O)N2C(=O)C(c3cc(C)ccc3OC)(N3C[C@H](OCCCO)C[C@H]3C(=O)N(C)C)c3cc(Cl)ccc32)c(OC(F)(F)F)c1` (stereo partly drawn) [Example 139, (4R)-1-(5-chloro-3-(2-methoxy-5-methylphenyl)-1-{[4-methoxy-2-(trifluoromethoxy)phenyl]sulfonyl}-2-oxo-2,3-dihydro-1H-indol-3-yl)-4-(3-hydroxypropoxy)-N,N-dimethyl-L-prolinamide] gave an inhibition at 0.1 µM of 103%.

Work on `C=Cc1ccccc1C1(N2C[C@H](O)C[C@H]2C(=O)N(C)C)C(=O)N(S(=O)(=O)c2ccc(OC)cc2OC(F)(F)F)c2ccc(Cl)cc21` (single isomer, unassigned) [Example 104] yielded an inhibition at 0.1 µM of 94%.

`CNCc1ccc(OC)c(C2(N3C[C@H](O)C[C@H]3C(=O)N(C)C)C(=O)N(S(=O)(=O)c3ccc(OC)cc3OC(F)(F)F)c3ccc(Cl)cc32)c1` (stereo partly drawn) [Example 206, (4R)-1-(5-chloro-3-{2-methoxy-5-[(methylamino)methyl]phenyl}-1-{[4-methoxy-2-(trifluoromethoxy)phenyl]sulfonyl}-2-oxo-2,3-dihydro-1H-indol-3-yl)-4-hydroxy-N,N-dimethyl-L-prolinamide] gave an inhibition at 0.1 µM of 105%.

With `COc1ccc(S(=O)(=O)N2C(=O)C(c3cc(C)ccc3OC)(N3C[C@H](OCCCN4CCN(C)CC4)C[C@H]3C(=O)N(C)C)c3cc(Cl)ccc32)c(OC(F)(F)F)c1` (stereo partly drawn) [Example 154, (4R)-1-(5-chloro-3-(2-methoxy-5-methylphenyl)-1-{[4-methoxy-2-(trifluoromethoxy)phenyl]sulfonyl}-2-oxo-2,3-dihydro-1H-indol-3-yl)-N,N-dimethyl-4-[3-(4-methylpiperazin-1-yl)propoxy]-L-prolinamide] the inhibition at 0.1 µM was 100%.

Compound `COc1ccc(S(=O)(=O)N2C(=O)C(c3cccc4c3OCC4)(N3C[C@H](O)C[C@H]3C(=O)N(C)C)c3cc(Cl)ccc32)c(OC(F)(F)F)c1` (single isomer, unassigned) [Example 89] has an inhibition at 0.1 µM of 104%.

For `COc1ccc(S(=O)(=O)N2C(=O)C(c3cc(C)ccc3OC)(N3C[C@H](OCCC(N)=O)C[C@H]3C(=O)N(C)C)c3cc(Cl)ccc32)c(OC(F)(F)F)c1` (stereo partly drawn) [Example 144, (4R)-4-(3-amino-3-oxopropoxy)-1-(5-chloro-3-(2-methoxy-5-methylphenyl)-1-{[4-methoxy-2-(trifluoromethoxy)phenyl]sulfonyl}-2-oxo-2,3-dihydro-1H-indol-3-yl)-N,N-dimethyl-L-prolinamide], the inhibition at 0.1 µM was 95%.

Work on `COc1ccc(S(=O)(=O)N2C(=O)C(c3cc(CC#N)ccc3OC)(N3C[C@H](O)C[C@H]3C(=O)N(C)C)c3cc(Cl)ccc32)c(OC(F)(F)F)c1` (single isomer, unassigned) [Example 236] yielded an inhibition at 0.1 µM of 93%.

`COc1ccc(S(=O)(=O)N2C(=O)C(c3cc(C)cnc3OC)(N3C[C@H](O)C[C@H]3C(=O)N(C)C)c3cc(Cl)ccc32)c(OCC(F)(F)F)c1` (single isomer, unassigned) [Example 169] was tested, and the inhibition at 0.1 µM was 93%.

Work on `COc1ccc(S(=O)(=O)N2C(=O)C(c3ccccc3C)(N3C[C@H](O)C[C@H]3C(=O)N(C)C)c3cc(Br)ccc32)c(OC(F)(F)F)c1` (single isomer, unassigned) [Example 105] yielded an inhibition at 0.1 µM of 95%.
